One series deals with H4IIE cells. The series is described as follows: Caspase 3 activity (apoptosis). In kind it is cell-based, rat. The procedure:
(§1) One test compound (Compound A) was received as dry powder and evaluated for potential cytotoxicity in a battery of in vitro assays. The compound was tested using both rat cardiomyocytes (CM) from rat neonates and a rat hepatoma (H4IIE) cell line. […] The cell supernatant or the cells themselves were harvested for biochemical analysis. General cytotoxicity was evaluated by monitoring membrane integrity, mitochondrial function, cell proliferation, oxidative stress, and apoptosis. In addition, interaction with P-glycoprotein (PgP) on H4IIE cells and solubility of the test compound were also assessed. The means of each exposure group (n=3-7) were calculated for each assay performed.
Experimental Protocol: The test compound was provided and stored at 4° C. until needed. Dosing solutions were prepared in complete culture medium. The rat hepatoma (H4IIE) cell line was used as the test system.
(§2) Caspase 3 Procedure: Caspase 3 activity was determined using a caspase substrate (DEVD, Asp-Glu-Val-Asp) labeled with a fluorescent molecule, 7-Amino4-methylcoumarin (AMC). Caspase 3 cleaves the tetrapeptide between D and AMC, thus releasing the fluorogenic […] AMC. Following the test article exposure to cells in 96-well plates, medium was aspirated from plates and PBS added to each well. Plates were stored at −80° C. to lyse cells and store samples until further analysis. On the day of analysis, plates were removed from freezer and thawed. Caspase buffer with fluorescent substrate was added to each well and incubated at room temperature for 1 hr. AMC release was measured in a spectrofluorometer at an excitation wavelength of 360 nm and an emission wavelength of 460 nm. Values are expressed as relative fluorescent units (RFU).
(§3) Caspase Activity: After sample plates were completely thawed, the caspase substrate buffer mix was added to each plate. Plates were incubated at room temperature for 1hr, shielded from light. Plates were read using a in a spectrofluorometer at an excitation wavelength of 360 nm and an emission wavelength of 460 nm. Values were expressed as relative fluorescent units (RFU).
(§4) The key to the maximal response data can be found below Table 2.

The next series deals with rat cardiomyocytes. The series is described as follows: Caspase 3 activity (apoptosis). The class given is cell-based. As for the experimental part:
as §1, §2, §3, §4

A further series can be described thus: BrdU incorporation. Particulars: human, run #2, read-out: BrdU TC50; for CC50 at 24 h: SK-MEL28, 24 HR; for CC50 at 72 h: SK-MEL28, 72 HR. The class given is cell-based, human. The procedure:
Bromodexoyurine (BrDU) Incorporation: This assay was used to monitor cumulative changes in DNA replication. The assay uses the thymidine analog BrdU to measure S-phase of cell replication and is considered to be the Gold Standard for cell proliferation. BrDU (10 μM) was included in the test compound dosing solution to allow BrDU incorporation during cell replication. BrDU was included for the duration of the exposure, 24 hr. After completion of exposure period, the cells were fixed and labeled with mouse monoclonal anti-BrDU (FITC). Fluorescence was measured using a Packard Fusion or equivalent plate reader at 485 nm excitation and 530 nm emission.
Bromodexoyurine (BrDU) Incorporation: After incubation, the test compound/BrDU solution was removed and cells were fixed. A solution containing mouse monoclonal anti-BrDU (FITC) was added and fluorescence was measured. Data were collected as relative fluorescent units (RFU). The blank was subtracted from the final well RFU. It represents the average of the first and last columns which contain no cells on that particular plate. The controls are untreated cells allowed to grow on the same plate. The compounds are represented by several separate RFU data points for each of the tested concentrations. The percent change relative to controls was calculated by dividing the average RFU by the control cell RFU and multiplying by 100.
Experiments were also conducted to verify the relationship between exposure time and the observed cytostatic effects of the test compound. An additional assay was used to monitor cumulative change in DNA replication. The assay uses the thymidine analog BrdU to measure S-phase of cell replication and is considered to be the Gold Standard for cell proliferation. […] The BrdU assay paralleled the MTT and propidium iodide assays. The apparent lower sensitivity of the BrdU assay is a reflection of the experimental design not the assay. BrdU data represents a cumulative effect from the beginning of exposure while the other assays are measuring one is remaining at the end of either the 24 hr or 72 hr exposure period. […] There was a trend toward increasing activity in caspase-3, a marker for cell apoptosis.
(Uptake of a labelled nucleoside into DNA is a usual measure of proliferation.)

A further series is described as follows: MTT reduction. Particulars: human; for CC50 at 24 h: MTT TC50, SK-MEL28, 24 HR. As for the experimental part: Tetrazolium Dye Reduction: 3-[4,5-dimethylthiazol-2-yl]
The test compound consisted of two parts mixed in a constant ratio of 5:1. The final test mixture consisted of Test mix 1 and Test mix 2, which were received as frozen solutions. The test mixture was tested in a ratio of 5:1 COMP A in five different cell types which included the following: SK-MEL28, human hepatocytes, HUVEC, C32, and NHEM cells. Cells were seeded into 96-well plates and cultured in medium containing 10% bovine serum. […]
Experimental Protocol: The test compounds were shipped on dry ice for testing. The compounds were stored frozen at −80° C. until needed. Dosing solutions were prepared in complete culture medium. SK-MEL28, human hepatocytes, HUVEC, C32, and NHEM cells were used as the test systems. Cells were seeded into 96-well plates and allowed to equilibrate for approximately 48 hr. Following the equilibration period the cells were exposed to the test compound mix at concentrations of COMP A (μg/mL)=(250:50), (125:25), (25:12.5), (12.5:2.5), (2.5:1.25), (1.25:0.25), and (0.25:0.05). Solubility was determined by Nephalometry techniques immediately after dosing and prior to harvesting the cells at 24 hr. Following the exposure period, the cells or their supernatant (culture medium) were analyzed for changes in cell proliferation, membrane leakage, mitochondrial function, oxidative stress, and apoptosis. The resultant exposure concentration response curves were graphed and analyzed for determining the concentration that produced a half maximal response or TC50.

Setting [1] is: H4IIE, 24 HR, exposure concentration that produced the response (μM series).

This note sets out measurements from patent US7615361B2, “Toxicity screening methods” (Ceetox, Inc., priority 2006, dated 2009).

On to `Cc1cccc(C)c1OCC(=O)N[C@@H](Cc1ccccc1)[C@@H](O)C[C@H](Cc1ccccc1)NC(=O)[C@H](C(C)C)N1CCCNC1=O` [LOPINAVIR, lopinavir], for which the “Caspase 3 Activity (Index/Dose): Dose” value in the series with H4IIE cells (rat, 24 h) is listed as 300; in the series on rat cardiomyocytes (rat, 24 h), 100.
Regarding `CC(C)Nc1cccnc1N1CCN(C(=O)c2cc3cc(NS(C)(=O)=O)ccc3[nH]2)CC1` [DELAVIRDINE, delavirdine], the “Caspase 3 Activity (Index/Dose): Dose” value in the series on rat cardiomyocytes (rat, 24 h) was found to be 100.
For the compound `COc1cccc2c1C(=O)c1c(O)c3c(c(O)c1C2=O)C[C@@](O)(C(=O)CO)C[C@@H]3O[C@H]1C[C@H](N)[C@H](O[C@@H]2CCCCO2)[C@H](C)O1` [PIRARUBICIN, pirarubicin], in the series on H4IIE cells (H4IIE, 24 HR), the “Caspase 3 Activity (Index/Dose): Index” value is listed as 8 (1400-1600 = 8). Further, the “Caspase 3 Activity (Index/Dose): Dose” value in the series with H4IIE cells (setting [1]) is on record as 10 (1800-2000 = 10).
In the case of `C=C(C)[C@H]1Cc2c(ccc3c2O[C@@H]2COc4cc(OC)c(OC)cc4[C@@H]2C3=O)O1` [ROTENONE, Rotenone], in the series “BrdU incorporation”, the CC50 at 24 h worked out at 9 µM and the CC50 at 72 h was 44 µM. The same compound returned a CC50 at 72 h in the series “MTT reduction” of 0.2 µM.
As for `COc1cccc2c1C(=O)c1c(O)c3c(c(O)c1C2=O)C[C@@](O)(C(=O)CO)C[C@@H]3O[C@H]1C[C@H](N)[C@@H](O)[C@H](C)O1` [EPIRUBICIN, epirubicin], the “Caspase 3 Activity (Index/Dose): Dose” value was 50 with H4IIE cells (rat, 24 h) and 20 in the series with rat cardiomyocytes (rat, 24 h).
Turning to `CC[C@@]1(O)C(=O)OCc2c1cc1n(c2=O)Cc2cc3ccccc3nc2-1` [CAMPTOTHECIN, Camptothecin], the “Caspase 3 Activity (Index/Dose): Index” value in the series with H4IIE cells (H4IIE, 24 HR) is 5 (800-1000 = 5); in the series on rat cardiomyocytes (CM, 24 HR) it was 6 (1000-1200 = 6). The “Caspase 3 Activity (Index/Dose): Dose” value is reported as 100 with H4IIE cells (setting [1]) and 300 in the series on rat cardiomyocytes (CM, 24 HR, exposure concentration that produced the response (μM series)). Also, the CC50 at 24 h in the series “BrdU incorporation” (SK-MEL28 cells) turned out to be 0.1 µM; in the series “MTT reduction” (SK-MEL28 cells), 241 µM; in the series “MTT reduction” (SK-MEL28 cells, run #2), 249 µM. The CC50 at 72 h came to 0.2 µM in “BrdU incorporation” (SK-MEL28 cells) and 0.1 µM in the series “MTT reduction” (SK-MEL28 cells, MTT TC50, SK-MEL28, 72 HR, run #2).
